Assay results reported in patent publication US20030190338A1, “Topical application of immixture of ascorbic acid + ascorbic acid compounds for augmenting the synthesis of epidermal ceramides” (SOCIETE L'OREAL S.A., priority 2000, published 2003).

Test system: skin equivalent marketed by EPISKIN (reconstructed epidermis)
Experiment: Synthesis of epidermal ceramides in reconstructed epidermis (14C acetate labelling, HPTLC, densitometry)
Format: cell-based
Conditions: each compound alone at 15 μg/ml, relative to the untreated control; for % increase in ceramides in the epidermis equivalent: 24 hours of treatment; for % increase in the ceramides in the epidermis equivalent: 48 hours of treatment
Description: Ascorbic acid and derivatives thereof were tested on a skin equivalent marketed by EPISKIN (LYON, France), after culturing the latter for 7 days. The culture and test media were those included in the kit marketed by the supplier. Each compound was tested individually at 15 μg/ml and in combination with 5 μg/ml (as vitamin C equivalent), in the culture medium. The reconstructed epidermes were treated for 24 hours. The control consisted of an identical epidermis equivalent which was subjected to topical application of culture medium without the test compound.
The reconstructed epidermis was incubated overnight with ^14C acetate (2 μCi/ml) before topical application of vitamin C and derivatives thereof, to monitor the synthesis of the lipids.
At the end of the incubation period, the epidermis equivalent was detached from its collagenic support. The preparation of the lipids of the epidermis equivalent and their analysis by HPTLC or high-performance thin-layer chromatography, were carried out according to the technique and with the buffers described by M. Ponec (1991, Adv. Lipid Res., 24:83-117).
At the end of the migration, densitometric analysis of the autoradiograph was carried out using a densitometer of the FUJI brand, model 1800.
The procedure described in Example 1 was repeated, except that the test was performed over 48 hours instead of 24 hours. In addition, only vitamin C and vitamin CP were tested, the mixture of the two being formulated using 7.5 μg/ml of each vitamin.

SMILES | % increase in ceramides in the epidermis equivalent [%] | % increase in the ceramides in the epidermis equivalent [%]
O=C1O[C@H]([C@@H](O)CO)C(O)=C1O [Vitamin C, ascorbic acid] | 54 | 126
O=C1O[C@H]([C@@H](O)CO)C(O)=C1O[C@H]1O[C@H](CO)[C@@H](O)[C@H](O)[C@H]1O [Vitamin CG, ascorbyl 2-glucoside] | 69 | –
O=C1O[C@H]([C@@H](O)CO)C([O-])=C1OP(=O)([O-])[O-].O=C1O[C@H]([C@@H](O)CO)C([O-])=C1OP(=O)([O-])[O-].[Mg+2].[Mg+2].[Mg+2] [Vitamin CP, Magnesium ascorbyl phosphate] | 99 | 148
